# Data as given in patent US9914730B2, “Azaquinazoline inhibitors of Atypical protein Kinase C” (Ignyta, Inc., priority 2012, dated 2018).
# Molecular target: T1, full-length human PKCι (Homo sapiens, UniProt P41743)
# T1 construct: Recombinant, full-length human PKCι expressed in Sf21 insect cells is also commercially available; purchased; host or cells: Sf21 insect cells
# T1 sequence (P41743 1-596): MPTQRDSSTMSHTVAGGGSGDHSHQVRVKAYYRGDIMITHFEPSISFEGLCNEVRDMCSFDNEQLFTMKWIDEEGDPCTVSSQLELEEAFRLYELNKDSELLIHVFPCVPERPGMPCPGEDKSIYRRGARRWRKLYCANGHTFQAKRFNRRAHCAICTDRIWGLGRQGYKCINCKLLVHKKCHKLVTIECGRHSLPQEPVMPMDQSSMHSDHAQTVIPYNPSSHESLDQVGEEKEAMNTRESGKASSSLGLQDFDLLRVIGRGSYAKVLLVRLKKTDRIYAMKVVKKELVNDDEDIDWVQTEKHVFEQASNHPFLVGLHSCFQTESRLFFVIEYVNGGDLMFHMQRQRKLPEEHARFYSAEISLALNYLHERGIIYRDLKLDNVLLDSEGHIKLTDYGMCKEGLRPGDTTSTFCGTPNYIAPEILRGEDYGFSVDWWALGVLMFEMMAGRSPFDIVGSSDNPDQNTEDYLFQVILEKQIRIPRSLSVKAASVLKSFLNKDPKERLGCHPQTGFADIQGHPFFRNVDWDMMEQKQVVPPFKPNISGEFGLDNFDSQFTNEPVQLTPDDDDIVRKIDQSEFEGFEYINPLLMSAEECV
# Assay: PKCι IC50 IMAP assay, full-length PKCι at 150 μM ATP
# Assay type: biochemical
# Settings: read-out: IC50 in IMAP assay against full length PKCi at 150 μM ATP
# Method in brief: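 IC50 from IMAP FP (ex 485/em 530 nm) after 60 min room-temperature reaction in pH 7.5 tris buffer with 9 mM MgCl2 and 0.9 mM DTT. Enzyme: full-length Sf21-expressed PKCι (~15 pM); ATP 150 μM, five times KM^APP; FAM-labelled peptide 100 nM; DMSO 4%.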
row,Structure (SMILES),IC50 [nM]
1,"CN1CCN(c2cccc(Nc3cc(-c4nc(N5CCN(C(N)=O)CC5)c5c(C6CC6)cncc5n4)ccn3)c2)CC1 [Example 687, 4-(5-Cyclopropyl-2-{2-[3-(4-methyl-piperazin-1-yl)-phenylamino]-pyridin-4-yl}-pyrido[3,4-d]pyrimidin-4-yl)-piperazine-1-carboxylic acid amide]",100 to 1000
2,"NC(=O)CN[C@H](CNc1nc(-c2ccncc2)nc2cnccc12)Cc1ccccc1 [Example 82, 2-{[(2S)-1-phenyl-3-{[2-(pyridin-4-yl)pyrido[3,4-d]pyrimidin-4-yl]amino}propan-2-yl]amino}acetamide]",1000 to 10000
3,"COc1cncc2nc(-c3ccncc3)nc(N3CCNC(C(=O)NCCc4ccccc4)C3)c12 (centres unmarked) [Example 158, 4-(5-Methoxy-2-pyridin-4-yl-pyrido[3,4-d]pyrimidin-4-yl)-piperazine-2-carboxylic acid phenethyl-amide]",1000 to 10000
4,"FC(F)(F)[C@H]1CN(c2nc(-c3ccnc(Cl)c3)nc3cncc(C4CC4)c23)CCN1 [Example 660, 2-(2-Chloro-pyridin-4-yl)-5-cyclopropyl-4-((R)-3-trifluoromethyl-piperazin-1-yl)-pyrido[3,4-d]pyrimidine]",10000 to 40000
5,"CN(c1nc(-c2ccnc(Nc3c(F)cccc3F)c2)nc2cncc(C3CC3)c12)C1CCN(CC(F)F)CC1 [Example 2123, {5-Cyclopropyl-2-[2-(2,6-difluoro-phenylamino)-pyridin-4-yl]-pyrido[3,4-d]pyrimidin-4-yl}-[1-(2,2-difluoro-ethyl)-piperidin-4-yl]-methyl-amine]",100 to 1000
6,"CCCCc1cncc2nc(-c3ccncc3)nc(N3CCNCC3)c12 [Example 135, 5-Butyl-4-piperazin-1-yl-2-pyridin-4-yl-pyrido[3,4-d]pyrimidine]",< 100
7,"Fc1ccc(Nc2cc(-c3nc(N4CCNCC4)c4c(C5CC5)cncc4n3)ccn2)nn1 [Example 2191, [4-(5-Cyclopropyl-4-piperazin-1-yl-pyrido[3,4-d]pyrimidin-2-yl)-pyridin-2-yl]-(6-fluoro-pyridazin-3-yl)-amine]",< 100

# The next lines start with the values.
row,IC50 [nM],Structure (SMILES)
1,< 100,"Clc1cccc(Nc2cc(-c3nc(N4CCNCC4)c4c(C5CC5)cncc4n3)ccn2)n1 [Example 514, (6-Chloro-pyridin-2-yl)-[4-(5-cyclopropyl-4-piperazin-1-yl-pyrido[3,4-d]pyrimidin-2-yl)-pyridin-2-yl]-amine]"
2,< 100,"OC1CCC(Nc2cc(-c3nc(N4CCNCC4)c4c(C5CC5)cncc4n3)ccn2)CC1 (centres unmarked) [Example 633, 4-[4-(5-Cyclopropyl-4-piperazin-1-yl-pyrido[3,4-d]pyrimidin-2-yl)-pyridin-2-ylamino]-cyclohexanol]"
3,< 100,"Fc1cc(F)c(Nc2cc(-c3nc(NC4CCNC4)c4c(C5CC5)cncc4n3)ccn2)nc1F (centres unmarked) [Example 2020, {5-Cyclopropyl-2-[2-(3,5,6-trifluoro-pyridin-2-ylamino)-pyridin-4-yl]-pyrido[3,4-d]pyrimidin-4-yl}-pyrrolidin-3-yl-amine]"
4,< 100,"Fc1cccc(F)c1Nc1cc(-c2nc(N3CCNCC3)c3c(C4CC4)cnc(Cl)c3n2)ccn1 [Example 2100, [4-(8-Chloro-5-cyclopropyl-4-piperazin-1-yl-pyrido[3,4-d]pyrimidin-2-yl)-pyridin-2-yl]-(2,6-difluoro-phenyl)-amine]"
5,< 100,"Cc1ccc(F)cc1Nc1cc(-c2nc(N3CCNCC3)c3c(C4CC4)cncc3n2)ccn1 [Example 523, [4-(5-Cyclopropyl-4-piperazin-1-yl-pyrido[3,4-d]pyrimidin-2-yl)-pyridin-2-yl]-(5-fluoro-2-methyl-phenyl)-amine]"
6,< 100,"COc1cncc2nc(-c3ccnc(Nc4ccc(C#N)cn4)c3)nc(N3CCNCC3)c12 [Example 353, 6-[4-(5-Methoxy-4-piperazin-1-yl-pyrido[3,4-d]pyrimidin-2-yl)-pyridin-2-ylamino]-nicotinonitrile]"
7,< 100,"COc1cncc2nc(-c3ccnc(Nc4ccccc4F)c3)nc(N3CCNCC3)c12 [Example 206, (2-Fluoro-phenyl)-[4-(5-methoxy-4-piperazin-1-yl-pyrido[3,4-d]pyrimidin-2-yl)-pyridin-2-yl]-amine]"
